Key:
Experiment in all cases: relative viability (nuclei count vs DMSO), 5 days (fraction); higher = more cells survive
[1] = system: NCI-H358
In short: (§1)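 A single step with final 0.05% Triton X-100, 1% formaldehyde and 1 ug/ml Hoechst fixed the cells and stained nuclei 5 days after treatment. Lung cancer cell lines in 1536-well plates had been treated by pin tool the day after seeding with one drug alone or a fixed anchor-drug dose plus five library-drug doses (not always all listed) in √10 steps, and nuclei were counted on 4× images. Relative viability is the ratio of nuclei in treated wells to nuclei in vehicle wells, taken as the median of duplicate plates.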

[2] = system: COR-L 105
In short: as §1

[3] = system: EPLC-272H
In short: as §1

[4] = system: BEN
In short: as §1

[5] = system: H3255
In short: as §1

[6] = system: NCI-H2087
In short: as §1

[7] = system: SW 1573
In short: as §1

[8] = system: HOP-62
In short: as §1

[9] = system: NCI-H2085
In short: as §1

[10] = system: PC-3 [JPC-3]
In short: as §1

[11] = system: NCI-H647
In short: as §1

[12] = system: LCLC-97TM1
In short: as §1

[13] = system: NCI-H1975
In short: as §1

[14] = system: NCI-H1395
In short: as §1

[15] = system: HCC-44
In short: as §1

[16] = system: NCI-H1437
In short: as §1

[17] = system: LOU-NH91
In short: as §1

[18] = system: 201T
In short: as §1

[19] = system: NCI-H1666
In short: as §1

[20] = system: LU99A
In short: as §1

[21] = system: HCC-827
In short: as §1

[22] = system: EKVX
In short: as §1

Work on `NC(=O)Nc1cc(-c2cccc(F)c2)sc1C(=O)N[C@H]1CCCNC1` [AZD7762] + C[C@]1(O)C[C@@H](c2nc(-c3ccc4ccc(-c5ccccc5)nc4c3)c3c(N)nccn32)C1 [Linsitinib] (partner 1 µM) yielded a relative viability ([1]; first compound 0.01 µM) of 0.695, a relative viability ([1]; first compound 0.03162 µM) of 0.745 and a relative viability ([1]; first compound 0.1 µM) of 0.711. It also gave a relative viability ([1]; first compound 0.3162 µM) of 0.617, a relative viability ([1]; first compound 1 µM) of 0.42 and a relative viability ([2]; first compound 0.01 µM) of 0.855. The relative viability ([2]; first compound 0.03162 µM) was 0.921, the relative viability ([2]; first compound 0.1 µM) was 0.748 and the relative viability ([2]; first compound 0.3162 µM) was 0.662. The relative viability ([2]; first compound 1 µM) was 0.393, the relative viability ([3]; first compound 0.01 µM) was 1.15 and the relative viability ([3]; first compound 0.03162 µM) was 1.28. For the same compound, the relative viability ([3]; first compound 0.1 µM) was 1.23, the relative viability ([3]; first compound 0.3162 µM) was 1.19 and the relative viability ([3]; first compound 1 µM) was 0.871. It also gave a relative viability ([4]; first compound 0.01 µM) of 1.04, a relative viability ([4]; first compound 0.03162 µM) of 0.892 and a relative viability ([4]; first compound 0.1 µM) of 0.797. For the same compound, the relative viability ([4]; first compound 0.3162 µM) was 0.829, the relative viability ([4]; first compound 1 µM) was 0.643 and the relative viability ([5]; first compound 0.01 µM) was 0.931. For the same compound, the relative viability ([5]; first compound 0.03162 µM) was 1.04, the relative viability ([5]; first compound 0.1 µM) was 0.969 and the relative viability ([5]; first compound 0.3162 µM) was 0.947. For the same compound, the relative viability ([5]; first compound 1 µM) was 0.817, the relative viability ([6]; first compound 0.01 µM) was 0.995 and the relative viability ([6]; first compound 0.03162 µM) was 0.986. For the same compound, the relative viability ([6]; first compound 0.1 µM) was 1.07, the relative viability ([6]; first compound 0.3162 µM) was 1.03 and the relative viability ([6]; first compound 1 µM) was 1.17. It also gave a relative viability ([7]; first compound 0.01 µM) of 0.843, a relative viability ([7]; first compound 0.03162 µM) of 0.989 and a relative viability ([7]; first compound 0.1 µM) of 0.99. It also gave a relative viability ([7]; first compound 0.3162 µM) of 0.891, a relative viability ([7]; first compound 1 µM) of 0.752 and a relative viability ([8]; first compound 0.01 µM) of 1.04. It also gave a relative viability ([8]; first compound 0.03162 µM) of 1.09, a relative viability ([8]; first compound 0.1 µM) of 1.32 and a relative viability ([8]; first compound 0.3162 µM) of 0.891. The relative viability ([8]; first compound 1 µM) was 0.987, the relative viability ([9]; first compound 0.01 µM) was 1.03 and the relative viability ([9]; first compound 0.03162 µM) was 0.885. For the same compound, the relative viability ([9]; first compound 0.1 µM) was 0.874, the relative viability ([9]; first compound 0.3162 µM) was 0.948 and the relative viability ([9]; first compound 1 µM) was 0.693. For the same compound, the relative viability ([10]; first compound 0.01 µM) was 0.929, the relative viability ([10]; first compound 0.03162 µM) was 0.966 and the relative viability ([10]; first compound 0.1 µM) was 0.999. The relative viability ([10]; first compound 0.3162 µM) was 0.987, the relative viability ([10]; first compound 1 µM) was 0.927 and the relative viability ([11]; first compound 0.01 µM) was 1.37. It also gave a relative viability ([11]; first compound 0.03162 µM) of 1.3, a relative viability ([11]; first compound 0.1 µM) of 1.05 and a relative viability ([11]; first compound 0.3162 µM) of 0.462. The relative viability ([11]; first compound 1 µM) was 0.153, the relative viability ([12]; first compound 0.01 µM) was 0.179 and the relative viability ([12]; first compound 0.03162 µM) was 0.209. The relative viability ([12]; first compound 0.1 µM) was 0.214, the relative viability ([12]; first compound 0.3162 µM) was 0.26 and the relative viability ([12]; first compound 1 µM) was 0.189. It also gave a relative viability ([13]; first compound 0.01 µM) of 1.07, a relative viability ([13]; first compound 0.03162 µM) of 0.888 and a relative viability ([13]; first compound 0.1 µM) of 0.881. It also gave a relative viability ([13]; first compound 0.3162 µM) of 0.681, a relative viability ([13]; first compound 1 µM) of 0.482 and a relative viability ([14]; first compound 0.01 µM) of 1.16. It also gave a relative viability ([14]; first compound 0.03162 µM) of 1.09, a relative viability ([14]; first compound 0.1 µM) of 0.966 and a relative viability ([14]; first compound 0.3162 µM) of 0.579. The relative viability ([14]; first compound 1 µM) was 0.481, the relative viability ([15]; first compound 0.01 µM) was 0.739 and the relative viability ([15]; first compound 0.03162 µM) was 0.679. For the same compound, the relative viability ([15]; first compound 0.1 µM) was 0.724, the relative viability ([15]; first compound 0.3162 µM) was 0.647 and the relative viability ([15]; first compound 1 µM) was 0.861. The relative viability ([16]; first compound 0.01 µM) was 1.06, the relative viability ([16]; first compound 0.03162 µM) was 0.991 and the relative viability ([16]; first compound 0.1 µM) was 0.982. The relative viability ([16]; first compound 0.3162 µM) was 1.04, the relative viability ([16]; first compound 1 µM) was 0.86 and the relative viability ([17]; first compound 0.01 µM) was 1.01. For the same compound, the relative viability ([17]; first compound 0.03162 µM) was 0.966, the relative viability ([17]; first compound 0.1 µM) was 0.933 and the relative viability ([17]; first compound 0.3162 µM) was 0.794. It also gave a relative viability ([17]; first compound 1 µM) of 0.57, a relative viability ([18]; first compound 0.01 µM) of 1.04 and a relative viability ([18]; first compound 0.03162 µM) of 1.06. It also gave a relative viability ([18]; first compound 0.1 µM) of 1.1, a relative viability ([18]; first compound 0.3162 µM) of 1.09 and a relative viability ([18]; first compound 1 µM) of 0.969. It also gave a relative viability ([19]; first compound 0.01 µM) of 0.845, a relative viability ([19]; first compound 0.03162 µM) of 1.02 and a relative viability ([19]; first compound 0.1 µM) of 1.05. It also gave a relative viability ([19]; first compound 0.3162 µM) of 0.868, a relative viability ([19]; first compound 1 µM) of 0.565 and a relative viability ([20]; first compound 0.01 µM) of 0.612. It also gave a relative viability ([20]; first compound 0.03162 µM) of 0.568, a relative viability ([20]; first compound 0.1 µM) of 0.526 and a relative viability ([20]; first compound 0.3162 µM) of 0.432. For the same compound, the relative viability ([20]; first compound 1 µM) was 0.397, the relative viability ([21]; first compound 0.01 µM) was 1.06 and the relative viability ([21]; first compound 0.03162 µM) was 0.994. It also gave a relative viability ([21]; first compound 0.1 µM) of 0.922, a relative viability ([21]; first compound 0.3162 µM) of 0.961 and a relative viability ([21]; first compound 1 µM) of 0.863. The relative viability ([22]; first compound 0.01 µM) was 0.972, the relative viability ([22]; first compound 0.03162 µM) was 0.971 and the relative viability ([22]; first compound 0.1 µM) was 0.844. For the same compound, the relative viability ([22]; first compound 0.3162 µM) was 0.873 and the relative viability ([22]; first compound 1 µM) was 0.507.

Reference: the supplement of paper PMC10307832
